Experiments:
[1] = Displacement of [3H]WAY100635 from 5HT1A receptor in pig striatal membranes; assay type: cell membranes, Sus scrofa, Striatum, Membrane
D(2) dopamine receptor [2] = target: T1, D(2) dopamine receptor (Homo sapiens, UniProt P14416); assay: Displacement of [3H]spiperone from human cloned dopamine D2long receptor expressed in CHO cells; assay type: cell-based
[3] = target: 5-hydroxytryptamine receptor 2A (Sus scrofa, UniProt P50129); assay: Displacement of [3H]ketanserin from 5HT2 receptor in pig striatal membranes; assay type: cell membranes, Striatum, Membrane
5-hydroxytryptamine receptor 2A, sequence (P50129 whole entry): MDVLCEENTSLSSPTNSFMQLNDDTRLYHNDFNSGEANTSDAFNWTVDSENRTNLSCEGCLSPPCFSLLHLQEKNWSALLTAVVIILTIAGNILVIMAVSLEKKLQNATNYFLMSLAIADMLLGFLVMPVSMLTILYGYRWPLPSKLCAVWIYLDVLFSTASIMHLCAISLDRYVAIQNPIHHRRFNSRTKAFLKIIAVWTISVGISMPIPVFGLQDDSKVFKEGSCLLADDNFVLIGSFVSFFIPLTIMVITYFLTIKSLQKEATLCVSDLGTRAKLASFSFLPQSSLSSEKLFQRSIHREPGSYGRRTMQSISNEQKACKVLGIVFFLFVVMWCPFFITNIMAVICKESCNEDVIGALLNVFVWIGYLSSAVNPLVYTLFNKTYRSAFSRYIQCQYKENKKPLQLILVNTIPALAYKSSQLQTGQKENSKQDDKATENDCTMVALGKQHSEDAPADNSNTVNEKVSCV

D(1A) dopamine receptor = D(1A) dopamine receptor (Sus scrofa, UniProt P50130); assay: Displacement of [3H]SCH23390 from dopamine D1 receptor in pig striatal membranes; assay type: cell membranes, Striatum, Membrane
D(1A) dopamine receptor, sequence (P50130 whole entry): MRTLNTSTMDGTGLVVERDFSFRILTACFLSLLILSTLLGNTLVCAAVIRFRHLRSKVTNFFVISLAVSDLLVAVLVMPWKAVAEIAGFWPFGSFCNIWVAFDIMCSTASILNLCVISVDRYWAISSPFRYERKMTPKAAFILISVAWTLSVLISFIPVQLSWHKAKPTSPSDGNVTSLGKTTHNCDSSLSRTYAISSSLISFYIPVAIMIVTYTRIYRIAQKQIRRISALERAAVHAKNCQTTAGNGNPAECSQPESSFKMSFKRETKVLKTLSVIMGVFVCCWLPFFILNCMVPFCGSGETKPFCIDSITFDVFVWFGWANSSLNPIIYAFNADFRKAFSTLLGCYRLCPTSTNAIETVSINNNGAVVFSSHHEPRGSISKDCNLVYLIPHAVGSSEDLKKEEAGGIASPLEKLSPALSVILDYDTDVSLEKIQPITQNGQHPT

[4] = Displacement of [3H]prazosin from adrenergic alpha1 receptor in pig striatal membranes; assay type: cell membranes, Sus scrofa, Striatum, Membrane
D(4) dopamine receptor = target: T2, D(4) dopamine receptor (Homo sapiens, UniProt P21917); assay: Displacement of [3H]spiperone from human cloned dopamine D4.4 receptor expressed in CHO cells; assay type: cell-based
T2 sequence (P21917 whole entry): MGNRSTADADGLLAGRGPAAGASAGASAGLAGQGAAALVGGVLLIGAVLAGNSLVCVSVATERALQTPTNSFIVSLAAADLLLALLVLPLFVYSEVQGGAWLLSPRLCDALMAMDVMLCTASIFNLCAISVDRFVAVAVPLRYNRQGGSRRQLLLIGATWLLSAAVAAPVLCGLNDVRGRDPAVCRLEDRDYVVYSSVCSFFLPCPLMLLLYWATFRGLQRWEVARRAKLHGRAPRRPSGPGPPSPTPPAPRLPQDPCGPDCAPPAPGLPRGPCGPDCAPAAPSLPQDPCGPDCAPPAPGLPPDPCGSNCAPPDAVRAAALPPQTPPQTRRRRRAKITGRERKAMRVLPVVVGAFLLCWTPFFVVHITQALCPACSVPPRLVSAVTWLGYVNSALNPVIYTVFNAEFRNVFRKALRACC

D(2) dopamine receptor [5] = target: T1, D(2) dopamine receptor; assay: Displacement of [3H]spiperone from human cloned dopamine D2short receptor expressed in CHO cells; assay type: cell-based
D(3) dopamine receptor = D(3) dopamine receptor (Homo sapiens, UniProt P35462); assay: Displacement of [3H]spiperone from human cloned dopamine D3 receptor expressed in CHO cells; assay type: cell-based
D(3) dopamine receptor, sequence (P35462 whole entry): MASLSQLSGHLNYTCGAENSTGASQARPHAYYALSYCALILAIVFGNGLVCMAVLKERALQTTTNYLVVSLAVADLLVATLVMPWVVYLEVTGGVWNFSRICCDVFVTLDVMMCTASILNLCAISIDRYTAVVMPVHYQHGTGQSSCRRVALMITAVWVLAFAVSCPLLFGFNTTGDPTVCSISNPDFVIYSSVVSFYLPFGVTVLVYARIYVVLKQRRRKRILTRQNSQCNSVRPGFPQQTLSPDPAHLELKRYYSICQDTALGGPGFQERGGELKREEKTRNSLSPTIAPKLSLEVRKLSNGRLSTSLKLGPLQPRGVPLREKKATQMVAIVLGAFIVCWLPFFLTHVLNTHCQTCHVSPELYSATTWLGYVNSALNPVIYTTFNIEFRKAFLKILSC

T1 sequence (P14416 whole entry): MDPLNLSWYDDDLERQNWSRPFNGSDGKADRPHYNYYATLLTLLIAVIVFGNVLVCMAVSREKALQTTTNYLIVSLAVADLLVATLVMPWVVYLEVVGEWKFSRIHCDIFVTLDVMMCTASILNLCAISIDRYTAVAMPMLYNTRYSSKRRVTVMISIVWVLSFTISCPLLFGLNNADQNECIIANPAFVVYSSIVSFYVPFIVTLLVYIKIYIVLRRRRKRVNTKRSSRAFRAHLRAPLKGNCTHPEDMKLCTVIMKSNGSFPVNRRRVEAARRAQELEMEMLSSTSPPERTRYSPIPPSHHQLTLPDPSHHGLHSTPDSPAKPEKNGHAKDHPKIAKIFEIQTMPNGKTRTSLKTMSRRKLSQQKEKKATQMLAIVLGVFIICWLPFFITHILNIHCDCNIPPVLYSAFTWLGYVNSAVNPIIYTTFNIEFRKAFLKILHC

Ki [1] | Ki (D(2) dopamine receptor [2]) | Ki [3] | Ki (D(1A) dopamine receptor) | Ki [4] | Ki (D(4) dopamine receptor) | Ki (D(2) dopamine receptor [5]) | Ki (D(3) dopamine receptor) | Compound
1200 nM | 2000 nM | 1700 nM | 9500 nM | 230 nM | 850 nM | 770 nM | 70 nM | COc1ccccc1N1CCN(CCCCNC(=O)c2ccc(-c3cn(Cc4ccc(-c5ccc(Cn6cc(-c7ccc(C(=O)NCCCCN8CCN(c9ccccc9OC)CC8)cc7)nn6)cc5)cc4)nn3)cc2)CC1
2500 nM | 15000 nM | 3400 nM | 3400 nM | 350 nM | 3400 nM | 10000 nM | 230 nM | COc1ccccc1N1CCN(CCCCNC(=O)c2cccc(-c3cn(Cc4ccc(-c5ccc(Cn6cc(-c7cccc(C(=O)NCCCCN8CCN(c9ccccc9OC)CC8)c7)nn6)cc5)cc4)nn3)c2)CC1

Source: ChEMBL document CHEMBL1154597, “1,1'-Disubstituted ferrocenes as molecular hinges in mono- and bivalent dopamine receptor ligands” (J Med Chem, 2009)
